From patent publication US10093699B2, “Peptides with antimicrobial, anticancer and/or wound-healing promoting activities, pharmaceutical compositions containing the same, and use of the peptides with antimicrobial, anticancer and/or wound-healing promoting activities” (priority 2015, dated 2018)
Where a SMILES comes first, the peptide text is derived from it. [ ]: non-standard residue; d: D form. 2Nal = N[C@@H](Cc1ccc2ccccc2c1)C(=O)O

Assays:
PC9 cells = assay: Cell live image (phase-contrast and immunofluorescence), PC9; type: cell-based, human; conditions: 12 μM, 5 minutes
Experimental: (§1) PC9 and HFW cells (˜10^5 cells) were pre-seeded in 6-cm polystyrene dishes for 24 hours. Cell nuclear is labeled by 4′,6-diamidino-2-phenylindole (DAPI) with a final concentration of 10 μg/ml. After 10 minutes of incubation, the cells were washed by PBS. FITC-K4R2Nal2S1-NH2 was added to the dishes with the final concentration of 12 μM. After incubation for 5, 10, 20 minutes or 1 hour at 37° C., the cells were washed with PBS. The images of FITC-K4R2Nal2S1-NH2 in PC9 cells and HFW cells were observed using the Inverted Fluorescent Microscope Zeiss/Observer.Z1.
(§2) To investigate the mode of actions of K4R2Nal2-S1 peptide on human cancer cell line (PC9) and human fibroblast (HFW), cells were treated with FITC-labeled K4R2-Nal2-S1. Nucleus was labeled with DAPI, and the blue signal was observed by UV exciting light. The fluorescence distribution of FITC-labeled K4R2-Nal2-S1 peptide on cell membrane was visualized by the inverted fluorescent microscope.

HFW cells = assay: Cell live image (phase-contrast and immunofluorescence), HFW; type: cell-based, human; conditions: 12 μM, 5 minutes
Experimental: as §1, §2

human fibroblast (HFW) = assay: MTT cytotoxicity to normal fibroblasts; type: cell-based; conditions: MTT assay
Experimental: Human lung cancer line PC9 and A549, oral squamous cell carcinoma cell line OECM-1 were cultured in RPMI medium supplemented with 10% fetal bovine serum and antibiotic. Human tongue carcinoma cell line SAS, oral cancer cell line C9, and human diploid fibroblast (HFW) were cultured in DMEM medium supplemented with 10% fetal bovine serum and antibiotic. Cells were cultured in a humidified incubator containing 5% CO2 at 37° C.
The MTT assay was employed to determine the in vitro cytotoxicity. All cancer cell lines were seeded in 96-well plate with concentration 5000 cells/100 μl/well and incubated for 24 hours. HFW was seeded with 8000 cells/100 μl/well.
After medium was removed, 100 μl fresh medium containing peptide (ranging from 50 μM to 3.13 μM, HFW was treated with 75 μM and 100 μM peptide additionally) was added to the wells. Following 3, 12 or 24 hour incubation, fresh medium with MTT (0.5 mg/ml) was replaced and incubated for 3 hours. After medium/MTT was removed, DMSO was added at 100 μl for dissolving the formazan crystal. Cell survival rate was calculated by measuring the absorbance at 540 nm using Multi-labeled Microplate Reader (VICTOR3). For cancer cells, medium mixed with H2O2 (aq) represented positive control (all cells died) while medium only represented negative control. For normal cells, medium only represented positive control (all cells lived) while medium mixed with H2O2 (aq) represented negative control (all cells died).
The cytotoxicities of S1 and its analogs on human lung cancer cells (i.e, PC9, PC9-G and A549), human oral cancer cells (i.e, C9, OECM-1, and SAS), and human fibroblast (HFW) were evaluated by MTT assay for 3, 12 and 24 hours.

caspase 3 in PC9 = assay: Western blot for activated caspase 3, PC9; type: cell-based, human; conditions: 12 μM
Experimental: PC9 cells were seeded in 10-cm polystyrene dishes for 48 hours. About seventy percent full of cells were treated with 12 μM K4R2Nal2S1 for 10 minutes, 1 hour or 24 hours. RPMI medium without peptide treated for 24 hours which was used as negative control.
Cells were collected by 200 μl RIPA and protease inhibitor blended buffer. After sonication and centrifugation for 10 minutes, 13000 rpm at 4° C., supernatants (lysis of cell) were collected. Protein concentrations of cell extracts were determined by Bradford reagent. Equal amount of boiled lysates (total 50 μg) were separated on 10% acrylamide gel. The gel was transferred to PVDF membrane in electro-blot system, 300 V, […], and 80 minutes.
The membrane was incubated in blocking buffer (5% skim milk, TBST buffer) for 1 hour at room temperature and washed in TBST buffer twice. Blocked membrane was incubated with Caspase-3 antibody (EPITOMICS, clone ID: E83-77) overnight at 4° C., washed for five times, and then incubated in secondary antibody (HRP, GeneTex catalogue number: GTX21311-01) for 1 hour at room temperature. The signals were visualized by enhanced chemiluminescence (ECL) and recorded by a detected system (ImageQuant LAS 4000 mini).

[1] = tested on: PC9 human lung cancer cells; type: in vivo, male nude mice
Experimental: 12 male nude mice (BALB/cAnN.Cg-Foxn1nu/CrlNarl) were purchased from National Laboratory Animal Center, Taiwan.
100 μl human lung cancer cell PC9 (3×10^6 cells) in Matrigel (Corning) was injected subcutaneously into the dorsal side of 5-week-old male nude mice. Each mouse was inoculated two sites on its back (Taguchi F, Koh Y, Koizumi F, Tamura T, Saijo N, et al. (2004) Anticancer effects of ZD6474, a VEGF receptor tyrosine kinase inhibitor, in gefitinib (“Iressa”)-sensitive and resistant xenograft models. Cancer Sci 95: 984-989.). 1 week 5 days after implantation (cancer size>95 mm^3), 12 mice were allocated randomly into two group. One group was received K4R2Nal2S1 (5 mg/Kg, dissolving in 100 μl PBS buffer) by tail vein injection three times a week, the other group was injected PBS as control.
Body weight and cancer size were measured three times a week. The cancer volume was calculated by formula of width^2×length×0.52. The cancer volume below 100% of the pretreatment volume was defined as “cancer reduction” (Taguchi F, Koh Y, Koizumi F, Tamura T, Saijo N, et al. (2004) Anticancer effects of ZD6474, a VEGF receptor tyrosine kinase inhibitor, in gefitinib (“Iressa”)-sensitive and resistant xenograft models. Cancer Sci 95: 984-989.). “Cancer reduction” was confirmed when the mice were dissected.
The mice were sacrificed after treatment of 40 days, the cancers were removed, photographed, and weighed. All animal experiments were performed in accordance with the animal guidelines of the National Tsing Hua University Institutional Animal Care and approved by Animal Care Committee.
Solid cancers were fixed in 4% formaldehyde buffer. Paraffin-embedded tissues were cut to 2 μm-thickness sections, and deparaffinized in ultraclear buffer (J.T. Baker) and graded ethanol. The morphology of cancers was obtained by Hematoxylin and eosin (H&E) stained sections. In addition, the sections were immunostained with anti-cleaved-PARP (1:100) antibody (Cell Signaling, clone number: D65E10).
Tissue images were captured using light microscope (Eclipse E400, Nikon) with digital microscopy camera (AxioCam ICc 5, ZEISS), at 40×, 200× and 400× fields.
To evaluate the anticancer effect of K4R2Nal2-S1 peptide in vivo, PC9 cells were implanted subcutaneously to nude mice (see FIG. 7A) and followed by K4R2-Nal2-S1 injection via the intravenous route, at a dose of 5 mg/kg, three times weekly (FIGS. 7B and 7C).
To examine the involvement of necrosis and apoptosis in K4R2Nal2-S1 peptide mediated anticancer effect, lung tumors generated in the xenograft mouse model were excised and analyzed by Hematoxylin and eosin (H&E) staining and immunohistochemistry for cleaved PARP, a marker for cell apoptosis.

[2] = 5 mg/kg i.v., three times weekly, harvested 40 days after injection

SMILES: CC(=O)N[C@@H](CCCCN)C(=O)N[C@@H](CCCCN)C(=O)N[C@@H](CCCCN)C(=O)N[C@@H](CCCCN)C(=O)N[C@@H](CCCNC(=N)N)C(=O)N[C@@H](CCCNC(=N)N)C(=O)N[C@@H](Cc1ccc2ccccc2c1)C(=O)N[C@@H](Cc1ccc2ccccc2c1)C(=O)N[C@@H](CCCCN)C(=O)N[C@@H](CCCCN)C(=O)N[C@@H](Cc1c[nH]c2ccccc12)C(=O)N[C@@H](CCCNC(=N)N)C(=O)N[C@@H](CCCCN)C(=O)N[C@@H](Cc1c[nH]c2ccccc12)C(=O)N[C@@H](CC(C)C)C(=O)N[C@@H](C)C(=O)N[C@@H](CCCCN)C(=O)N[C@@H](CCCCN)C(N)=O [K4R2-Nal2-S1, Ac-KKKKRR-Nal-Nal-KKWRKWLAKK-NH2] (Ac-KKKKRR[2Nal][2Nal]KKWRKWLAKK-NH2)
- cellular swelling (phase-contrast microscopy) (PC9 cells): induced cellular swelling
- cellular swelling (phase-contrast microscopy) (HFW cells): not in HFW cells
- degrees of cytotoxicities to HFW (rank order) (human fibroblast (HFW)): S1 peptide<K4R2-Nal2-S1 peptide<K6-Nal2-S1 peptide<Nal2-S1 peptide
- caspase 3 activation (immunoblotting) (caspase 3 in PC9): activated caspase 3
- tumor growth ([1]; 5 mg/kg i.v., three times weekly): significant inhibition
- volume of tumors harvested [1, 2]: decreased
- weight of tumors harvested [1, 2]: decreased
- number of exposed tumors ([1]; 46th day after implantation, 6 mice×2 side implantation, 12 in the PBS group): 7
- necrosis in tumors (H&E staining) ([1]; excised xenograft tumors): large scale of necrosis regions
- cleaved PARP expression (immunohistochemistry) ([1]; excised xenograft tumors, next to the necrosis regions): increased expression of cleaved PARP
